Experimental data taken from patent US5430032A, “Benzopyrido piperidylidene compounds, compositions, methods of manufacture and methods of use” (Schering Corporation, priority 1994, dated 1995).
pIC50: −log10 of the molar value.

Key:
[1] = test system: platelet-activating factor (PAF); assay: Platelet aggregation assay (PAF-induced aggregation, human platelet-rich plasma); type: cell-based; settings: PAF-induced aggregation of human platelets, in vitro, read-out: PAF Antagonism (in vitro) IC50
Procedure: Platelet-activating factor (PAF) causes aggregation of platelets by a receptor-mediated mechanism. Therefore, PAF-induced platelet aggregation provides a simple and convenient assay to screen compounds for PAF antagonism. Human blood (50 mL) was collected from healthy male donors in an anticoagulant solution (5 mL) containing sodium citrate (3.8%) and dextrose (2%). Blood was centrifuged at 110×g for 15 min. and the supernatant platelet-rich plasma (PRP) carefully transferred into a polypropylene tube. Platelet-poor-plasma (PPP) was prepared by centrifuging PRP at 12,000×g for 2 min. (Beckman Microfuge B). PRP was used within 3 hr. of drawing the blood. PAF was dissolved in chloroform:methanol (1:1, v/v) at a concentration of 2 mg/mL and stored at -70° C. An aliquot of this solution was transferred to a polypropylene tube and dried under a flow of nitrogen gas. To the dried sample was added Hepes-saline-BSA (BSA=bovine serum albumen) buffer (25 mM Hepes, pH 7.4, […], 0.7 mM MgCl2 and 0.1% BSA) to obtain a 1 mM solution and sonicated for 5 min. in a bath sonicator. This stock solution was further diluted to appropriate concentrations in Hepes-saline-BSA buffer. Collagen (Sigma) and adenosine diphosphate (ADP) (Sigma) were purchased as solutions. Test compounds were initially dissolved in dimethyl sulfoxide (DMSO) at a concentration of 50 mM and then further diluted in Hepes-saline-BSA buffer to achieve appropriate concentrations.
When an aggregating agent such as PAF is added to PRP, platelets aggregate. An aggregometer quantifies this aggregation by measuring and comparing light (infra-red) transmission through PPP and PRP. Aggregation assays were performed using a dual-channel aggregometer (Model 440, Chrono-Log Corp., Havertown, Pa.). PRP (0.45 mL) in aggregometer cuvettes was continually stirred (37° C.). Solutions (50 μL) of test compounds or vehicle were added to the PRP and, after incubation for 2 min., 10-15 μl aliquots of PAF solution were added to achieve a final concentration of 1-5×10^-8 M. In different experiments the aggregatory response was kept within a set limit by varying the concentration of PAF. Incubations were continued until the increase in light transmission reached a maximum (usually 2 min.). This increase in light transmission reflecting platlet aggregation is transmitted to a computer by the Chrono-Log model 810 AGGRO/LINK interface. The AGGRO/LINK calculates the slope of transmission change, thus providing the rate of aggregation. Values for inhibition were calculated by comparing rates of aggregation obtained in the absence and the presence of the compound. For each experiment, a standard PAF antagonist such as 8-chloro-6,11-dihydro-11-(1-acetyl-4-piperidylidene)-5H-benzo[5,6]cyclohepta[1,2-b]pyridine was used as a positive control.
Compounds that inhibit PAF-induced aggregation were tested against several other aggregating agents including collagen (0.2 mg/mL) and ADP (2 μM). Compounds showing no activity against these latter agents were considered to be specific PAF antagonists.

PAF = assay: PAF-induced bronchospasm in guinea pigs (in vivo, oral); parameters: species or system guinea pig; settings: for Agonist Bronchospasm (in vivo)-Oral, PAF, Inhibition: 2 hours after dose, PAF 0.4 μg/kg i.v.; for effect on the PAF response, compared with the histamine response: both responses at similar doses, in words
Histamine = assay: Histamine-induced bronchospasm in guinea pigs (in vivo, oral); parameters: species or system guinea pig; settings: for Agonist Bronchospasm (in vivo)-Oral, Histamine, Inhibition: 2 hours after dose, histamine 10 ug/kg i.v.; for effect on the histamine response, compared with the PAF response: both responses at similar doses, in words

pIC50 [1]	SMILES	Agonist Bronchospasm (in vivo)-Oral, PAF, Inhibition (PAF; 1 mg/kg) [%]	Agonist Bronchospasm (in vivo)-Oral, Histamine, Inhibition (Histamine; 10 mg/kg) [%]	effect on the PAF response, compared with the histamine response (PAF)	Agonist Bronchospasm (in vivo)-Oral, PAF, Inhibition (PAF; 5 mg/kg) [%]	effect on the histamine response, compared with the PAF response (Histamine)	Agonist Bronchospasm (in vivo)-Oral, Histamine, Inhibition (Histamine; 3 mg/kg) [%]	Agonist Bronchospasm (in vivo)-Oral, PAF, Inhibition (PAF; 3 mg/kg) [%]
6.52	O=C(c1cc[n+]([O-])cc1)N1CCN(C2c3ccc(Cl)cc3SCc3cccnc32)CC1 (stereo not shown) [Compound 5]	38	9					
7.40	O=C(c1cc[n+]([O-])cc1)N1CCC(=C2c3ccc(Cl)cc3SCc3cccnc32)CC1 [Compound 3]	91	9					
6.22	CC(=O)N1CCC(=C2c3ccc(Cl)cc3CCc3cccnc32)CC1 [Compound 1]			there is an effect on both responses at similar doses	49	there is an effect on both responses at similar doses	49	
6.70	O=C(c1cc[n+]([O-])cc1)N1CCN(C2c3ccc(Cl)cc3OCc3cccnc32)CC1 (stereo not shown) [Compound 4]	68					5	
6.70	O=C(c1cc[n+]([O-])cc1)N1CCC(=C2c3ccc(Cl)cc3CCc3cccnc32)CC1 [Compound 2]			there is an effect on both responses at similar doses		there is an effect on both responses at similar doses	37	93
